Data published in patent US20090233888A1, “TREATMENT OF DISEASE CONDITIONS THROUGH MODULATION OF HYDROGEN SULFIDE PRODUCED BY SMALL INTESTINAL BACTERIAL OVERGROWTH” (priority 2005, published 2009).

Experiments:
[1] = system: intestinal transit across the proximal gut; assay: Intestinal transit in dogs with duodenal and midgut fistulas; assay type: in vivo; conditions: last 30 min of 90-min perfusion, mean±SE, buffer control 53.77±5.96%
Procedure: The inventor determined the effect of hydrogen sulfide on intestinal transit. Five dogs were equipped with duodenal and midgut fistulas. With occluding Foley catheters in the distal limb of the 2 fistulas, the small intestine was compartmentalized into the proximal and distal ½ of the gut. The proximal gut was perfused with pH 7.0 phosphate buffer with 0 or 1 mM NaHS (a donor of H2S) at 2 ml/min while the distal gut was perfused with pH 7.0 phosphate buffer with 0 or 60 mM oleate at 2 ml/min for 90 minutes. 60 mM oleate was used to trigger the ileal brake response to slow intestinal transit. Intestinal transit across the proximal gut was measured by the cumulative % recovery of a radioactive marker out of the midgut fistula during the last 30 min of the 90-min perfusion (data=mean±SE).

[2] = inhaled; cited from earlier work
[3] = rat model of HPS, chronic bile duct ligation; cited from earlier work
[4] = single patient with HPS, enhanced oxygenation; cited from earlier work
gut bacteria = conditions: Norfloxacin treatment; cited from earlier work
[5] = 100 patients, mild to moderate AD, doxycycline and rifampin together; cited from earlier work
SIBO = conditions: about 400 mg TID for about 10 days; cited from earlier work

In the case of `S` [Hydrogen sulfide], the “Intestinal transit: cumulative % recovery of a radioactive marker out of the midgut fistula” value ([1]; H2S perfused in distal compartment) is listed as 60.72±8.97%, the “Intestinal transit: cumulative % recovery of a radioactive marker out of the midgut fistula” value ([1]; H2S perfused in proximal compartment (1 mM NaHS, pH 7.0 phosphate buffer, 2 ml/min)) is listed as 37.78±3.80% and the “level that can be fatal (respiratory failure and pulmonary edema)” value [2] is listed as over 600 ppm.

For `COC(=O)[C@@H](N)CCCNC(=N)N[N+](=O)[O-]` [L-NAME, nomega-nitro-L-arginine methylester], the hypoxia [3] is given as “improved but did not correct hypoxia” and the extra walking distance [4] is given as 92 M.

For `CCn1cc(C(=O)O)c(=O)c2cc(F)c(N3CCNCC3)cc21` [Norfloxacin], the iNOS expression (gut bacteria) is listed as “normalized” and the “severity of intrapulmonary vascular dilatation, reduction” value (gut bacteria) is listed as “about ½”.

With `CCCCCCCC/C=C\CCCCCCCC(=O)O` [fat, oleate] the “Intestinal transit: cumulative % recovery of a radioactive marker out of the midgut fistula” value ([1]; fat (60 mM oleate) in distal 1/2 of gut, ileal brake) was 16.00±3.92%.

In the case of `CO[C@H]1/C=C/O[C@@]2(C)Oc3c(C)c(O)c4c(O)c(c(/C=N/N5CCN(C)CC5)c(O)c4c3C2=O)NC(=O)/C(C)=C\C=C\[C@H](C)[C@H](O)[C@@H](C)[C@@H](O)[C@@H](C)[C@H](OC(C)=O)[C@@H]1C` [rifampin], the cognitive worsening [5] is listed as “reduce cognitive worsening”.

For `CO[C@H]1/C=C/O[C@@]2(C)Oc3c(C)c(O)c4c(O)c(c5c(nc6cc(C)ccn65)c4c3C2=O)NC(=O)/C(C)=C\C=C\[C@H](C)[C@H](O)[C@@H](C)[C@@H](O)[C@@H](C)[C@H](OC(C)=O)[C@@H]1C` [rifaximin], the “efficacy in achieving successful partial eradication of SIBO” value (SIBO) is listed as 60-70%.
